Key:
[1] = target: T1, Adenine DNA glycosylase (Homo sapiens) (UniProt Q9UIF7); settings: Hit No;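 further: human MUTYH activity read as 594 nm fluorescence from cleavage and release of a quenched DNA duplex, coupled with APE1 for strand incision, lower signal meaning inhibition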
T1 sequence (whole entry): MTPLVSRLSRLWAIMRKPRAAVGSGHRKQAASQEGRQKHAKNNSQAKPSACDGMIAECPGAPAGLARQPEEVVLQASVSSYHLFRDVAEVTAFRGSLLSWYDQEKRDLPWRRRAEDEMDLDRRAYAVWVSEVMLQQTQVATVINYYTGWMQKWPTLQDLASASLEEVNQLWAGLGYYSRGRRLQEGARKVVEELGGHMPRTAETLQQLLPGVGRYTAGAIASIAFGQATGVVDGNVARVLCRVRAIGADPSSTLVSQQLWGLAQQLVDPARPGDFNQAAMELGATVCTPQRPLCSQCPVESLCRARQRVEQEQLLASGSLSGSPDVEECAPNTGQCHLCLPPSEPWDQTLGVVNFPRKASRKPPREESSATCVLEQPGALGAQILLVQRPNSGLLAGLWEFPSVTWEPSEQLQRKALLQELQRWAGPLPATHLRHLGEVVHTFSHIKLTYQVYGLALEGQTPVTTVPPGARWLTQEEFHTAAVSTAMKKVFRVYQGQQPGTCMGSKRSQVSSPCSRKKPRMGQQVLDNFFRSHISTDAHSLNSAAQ
Description: Inhibition of MUTYH by quantifying inhibition of MUTYH-mediated cleavage and dissociation of quenched duplex DNA oligonucleotides, measured as fluorescence at 594 nm. To generate a functional strand incision and increase turn-over this assay is coupled to APE1.

[2] = target: Uracil-DNA glycosylase (Homo sapiens) (UniProt P13051); settings: Hit No;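 further: UNG excision on a quenched double-stranded DNA oligo probe, with APE1 added for strand incision and turnover, read as fluorescence at 594 nm as strands separate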
Uracil-DNA glycosylase (Homo sapiens), sequence (P13051 whole entry): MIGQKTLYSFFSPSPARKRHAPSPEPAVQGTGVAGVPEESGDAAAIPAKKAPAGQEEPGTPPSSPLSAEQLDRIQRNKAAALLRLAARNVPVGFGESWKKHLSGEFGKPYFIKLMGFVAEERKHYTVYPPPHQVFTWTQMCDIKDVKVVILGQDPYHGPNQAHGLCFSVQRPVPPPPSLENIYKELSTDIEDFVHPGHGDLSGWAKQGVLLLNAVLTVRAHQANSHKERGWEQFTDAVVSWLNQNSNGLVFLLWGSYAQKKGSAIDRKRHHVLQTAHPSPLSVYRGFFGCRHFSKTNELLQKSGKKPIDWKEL
Description: Inhibition of UNG by quantifying inhibition of UNG-mediated cleavage and dissociation of quenched duplex DNA oligonucleotides, measured as fluorescence at 594 nm. To generate a functional strand incision and increase turn-over this assay is coupled to APE1.

[3] = target: G/T mismatch-specific thymine DNA glycosylase (Homo sapiens) (UniProt Q13569);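 further: human TDG cleavage of quenched duplex DNA oligonucleotides coupled to APE1, strand release read as fluorescence at 594 nm, inhibition of TDG activity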
G/T mismatch-specific thymine DNA glycosylase (Homo sapiens), sequence (Q13569 whole entry): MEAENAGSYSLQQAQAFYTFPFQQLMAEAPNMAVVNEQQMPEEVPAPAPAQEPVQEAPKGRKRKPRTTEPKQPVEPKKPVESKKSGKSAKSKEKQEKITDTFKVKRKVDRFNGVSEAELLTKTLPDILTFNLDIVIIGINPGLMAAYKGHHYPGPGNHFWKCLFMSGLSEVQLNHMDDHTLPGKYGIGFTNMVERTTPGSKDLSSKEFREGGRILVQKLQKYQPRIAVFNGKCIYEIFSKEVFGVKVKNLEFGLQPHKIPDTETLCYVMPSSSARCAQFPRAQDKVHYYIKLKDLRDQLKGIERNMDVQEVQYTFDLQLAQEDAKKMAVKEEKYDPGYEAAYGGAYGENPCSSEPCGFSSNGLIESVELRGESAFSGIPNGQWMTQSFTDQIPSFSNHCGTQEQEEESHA
Description: Inhibition of TDG by quantifying inhibition of TDG-mediated cleavage and dissociation of quenched duplex DNA oligonucleotides, measured as fluorescence at 594 nm. To generate a functional strand incision and increase turn-over this assay is coupled to APE1.

[4] = target: T2, Endonuclease III-like protein 1 (Homo sapiens) (UniProt P78549); settings: Hit No;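 further: enzyme assay tracking NTHL1 cutting and release of a quenched double-stranded DNA oligo substrate, read as fluorescence at 594 nm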
T2 sequence (whole entry): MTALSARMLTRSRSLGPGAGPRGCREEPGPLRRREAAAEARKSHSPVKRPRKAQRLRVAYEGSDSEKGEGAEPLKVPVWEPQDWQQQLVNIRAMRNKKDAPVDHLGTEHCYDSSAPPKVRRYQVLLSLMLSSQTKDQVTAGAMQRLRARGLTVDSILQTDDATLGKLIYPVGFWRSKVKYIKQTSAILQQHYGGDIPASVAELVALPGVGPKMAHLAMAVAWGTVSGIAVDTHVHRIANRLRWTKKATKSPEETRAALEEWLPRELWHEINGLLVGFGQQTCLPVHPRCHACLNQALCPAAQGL
Description: Inhibition of NTHL1 by quantifying inhibition of NTHL1-mediated cleavage and dissociation of quenched duplex DNA oligonucleotides, measured as fluorescence at 594 nm.

[5] = target: T3, Endonuclease 8-like 2 (Homo sapiens) (UniProt Q969S2); settings: Hit No;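 further: fluorescence at 594 nm reports NEIL2 cutting and release of a quenched double-stranded DNA oligo substrate, reduced signal read as inhibition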
T3 sequence (whole entry): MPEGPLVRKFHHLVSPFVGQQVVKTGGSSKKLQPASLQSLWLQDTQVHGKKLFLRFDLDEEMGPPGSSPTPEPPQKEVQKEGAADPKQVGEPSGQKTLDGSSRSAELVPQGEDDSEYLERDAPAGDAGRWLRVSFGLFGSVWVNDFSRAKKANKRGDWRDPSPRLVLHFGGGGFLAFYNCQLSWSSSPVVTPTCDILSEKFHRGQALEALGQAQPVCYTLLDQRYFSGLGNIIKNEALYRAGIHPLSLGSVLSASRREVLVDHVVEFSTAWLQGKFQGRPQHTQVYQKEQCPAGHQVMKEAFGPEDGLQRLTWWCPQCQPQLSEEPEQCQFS
Description: Inhibition of NEIL2 by quantifying inhibition of NEIL2-mediated cleavage and dissociation of quenched duplex DNA oligonucleotides, measured as fluorescence at 594 nm.

[6] = target: Methyl-CpG-binding domain protein 4 (Homo sapiens) (UniProt O95243);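 further: MBD4 activity read as fluorescence at 594 nm from cleavage and release of a quenched duplex DNA oligonucleotide, with APE1 coupled to incise the strand and raise turnover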
Methyl-CpG-binding domain protein 4 (Homo sapiens), sequence (O95243 whole entry, the tested form may be a part): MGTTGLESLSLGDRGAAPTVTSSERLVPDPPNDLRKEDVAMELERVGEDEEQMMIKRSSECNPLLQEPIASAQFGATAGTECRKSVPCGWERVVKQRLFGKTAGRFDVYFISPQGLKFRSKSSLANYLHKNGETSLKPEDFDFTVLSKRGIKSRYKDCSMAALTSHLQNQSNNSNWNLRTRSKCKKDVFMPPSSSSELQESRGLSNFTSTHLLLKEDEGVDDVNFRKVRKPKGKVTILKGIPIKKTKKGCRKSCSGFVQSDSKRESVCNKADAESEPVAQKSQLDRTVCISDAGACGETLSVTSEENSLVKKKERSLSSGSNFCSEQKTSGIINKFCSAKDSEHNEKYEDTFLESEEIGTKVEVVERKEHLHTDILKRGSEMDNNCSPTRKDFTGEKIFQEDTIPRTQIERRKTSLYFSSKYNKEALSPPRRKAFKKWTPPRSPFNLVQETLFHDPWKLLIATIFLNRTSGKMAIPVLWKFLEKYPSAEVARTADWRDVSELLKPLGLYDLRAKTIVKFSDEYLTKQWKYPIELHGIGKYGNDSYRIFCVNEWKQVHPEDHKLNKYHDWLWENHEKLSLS
Description: Inhibition of MBD4 by quantifying inhibition of MBD4-mediated cleavage and dissociation of quenched duplex DNA oligonucleotides, measured as fluorescence at 594 nm. To generate a functional strand incision and increase turn-over this assay is coupled to APE1.

[7] = target: T4, Single-strand selective monofunctional uracil DNA glycosylase (Homo sapiens) (UniProt Q53HV7); settings: Hit No;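 further: enzymatic SMUG1 assay coupled with APE1, reading fluorescence at 594 nm released when a quenched double-stranded DNA oligonucleotide substrate is cleaved and separated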
T4 sequence (whole entry): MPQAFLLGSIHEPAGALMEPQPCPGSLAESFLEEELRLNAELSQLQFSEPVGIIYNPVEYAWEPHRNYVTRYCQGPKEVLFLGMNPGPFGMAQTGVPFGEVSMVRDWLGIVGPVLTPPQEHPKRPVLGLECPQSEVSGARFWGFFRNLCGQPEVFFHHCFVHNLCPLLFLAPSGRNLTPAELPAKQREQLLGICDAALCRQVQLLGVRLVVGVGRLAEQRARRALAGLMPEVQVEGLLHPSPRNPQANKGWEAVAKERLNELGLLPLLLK
Description: Inhibition of SMUG1 by quantifying inhibition of SMUG1-mediated cleavage and dissociation of quenched duplex DNA oligonucleotides, measured as fluorescence at 594 nm. To generate a functional strand incision and increase turn-over this assay is coupled to APE1.

[8] = target: N-glycosylase/DNA lyase (Homo sapiens) (UniProt O15527);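 further: OGG1 cleavage of a quenched duplex DNA oligonucleotide, coupled to APE1 for strand incision, read as fluorescence at 594 nm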
N-glycosylase/DNA lyase (Homo sapiens), sequence (O15527 whole entry): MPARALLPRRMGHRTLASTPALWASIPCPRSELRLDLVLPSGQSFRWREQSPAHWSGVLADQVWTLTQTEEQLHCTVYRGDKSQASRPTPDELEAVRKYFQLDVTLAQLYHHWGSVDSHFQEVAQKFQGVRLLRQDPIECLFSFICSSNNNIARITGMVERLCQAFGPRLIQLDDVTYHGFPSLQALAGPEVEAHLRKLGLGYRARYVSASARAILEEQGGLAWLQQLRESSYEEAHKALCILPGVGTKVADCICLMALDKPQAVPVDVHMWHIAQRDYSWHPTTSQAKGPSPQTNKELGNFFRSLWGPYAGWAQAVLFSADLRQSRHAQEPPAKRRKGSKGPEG
Description: Inhibition of OGG1 by quantifying inhibition of OGG1-mediated cleavage and dissociation of quenched duplex DNA oligonucleotides, measured as fluorescence at 594 nm. To generate a functional strand incision and increase turn-over this assay is coupled to APE1.

[9] = target: Endonuclease 8-like 1 (Homo sapiens) (UniProt Q96FI4); settings: Hit No;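 further: fluorescence at 594 nm from quenched duplex DNA oligonucleotides released by NEIL1 cleavage and strand separation, reported as reduction of this enzyme activity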
Endonuclease 8-like 1 (Homo sapiens), sequence (Q96FI4 whole entry): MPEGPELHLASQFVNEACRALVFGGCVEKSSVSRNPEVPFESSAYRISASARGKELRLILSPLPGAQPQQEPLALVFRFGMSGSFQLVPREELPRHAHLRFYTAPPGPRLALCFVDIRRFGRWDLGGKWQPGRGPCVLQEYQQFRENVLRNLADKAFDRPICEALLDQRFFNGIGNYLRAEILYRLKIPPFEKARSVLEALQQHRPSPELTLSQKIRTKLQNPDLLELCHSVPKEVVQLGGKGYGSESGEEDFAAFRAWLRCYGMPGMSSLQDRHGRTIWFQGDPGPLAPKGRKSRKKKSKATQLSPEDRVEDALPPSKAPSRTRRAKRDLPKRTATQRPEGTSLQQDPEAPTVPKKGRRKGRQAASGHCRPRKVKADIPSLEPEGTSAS
Description: Inhibition of NEIL1 by quantifying inhibition of NEIL1-mediated cleavage and dissociation of quenched duplex DNA oligonucleotides, measured as fluorescence at 594 nm.

[10] = Compound Concentration 10.0 uM, Hit No
[11] = Compound Concentration 1.0 uM, Hit No
[12] = Compound Concentration 10.0 uM, Hit Yes

inhibition ([1]; Compound Concentration 10.0 uM) [%]	inhibition ([2]; Compound Concentration 10.0 uM) [%]	inhibition [3, 10] [%]	inhibition ([4]; Compound Concentration 10.0 uM) [%]	inhibition ([5]; Compound Concentration 10.0 uM) [%]	inhibition [6, 10] [%]	inhibition ([7]; Compound Concentration 10.0 uM) [%]	inhibition [8, 10] [%]	inhibition ([1]; Compound Concentration 1.0 uM) [%]	inhibition ([2]; Compound Concentration 1.0 uM) [%]	inhibition ([4]; Compound Concentration 1.0 uM) [%]	inhibition [6, 11] [%]	inhibition ([7]; Compound Concentration 1.0 uM) [%]	inhibition [8, 11] [%]	Compound	also measured
-6.82	7.11	45.8	-0.63	-1.76	63.5	21.1	5							O=C(c1ccc2c(ccn2-c2ccc(F)cc2)c1)N1CC(N2CCN(C(=O)c3nccs3)CC2)C1	
-8.96	-1.49	97.5	7.92	-4.57	55.4	16.2	16.5							CCOC(=O)N1CCC(CN(Cc2ccc(Cl)cc2)Cc2ccc([N+](=O)[O-])s2)C1 (centres undefined)	
-7.4	-0.61	47.8	8.46	2.66	26.4	16.3	-9.1							COc1cc(Nc2nc(C)cc(-c3cnn4nc(OC)ccc34)n2)cc(C(F)(F)F)c1	
1.64	-2.41	56.4	-9.83	-9.67	55.6	9.87	1.66							O=C(N1CCS(=O)(=O)CC1)N1C[C@H](c2ccc(OC(F)(F)F)cc2)C[C@H](c2nc(C3CC3)no2)C1	
6.62	5.42	53.6	-7.86	-7.38	62.8	17.9	20.2							Cc1nc(-c2ccc(C(F)(F)F)cc2)sc1C(=O)NCc1ccc(OC(C)(C)C(=O)O)cc1	
-6.71	-1.74	48.6	-3.92	5.63	77.6	-7.05	-4							CO[C@@H](C)c1c(Nc2ccc([C@H](N(C)C(=O)C3CCS(=O)(=O)CC3)C(F)(F)F)cc2)cnc2cc(Cl)nn12	
-7.96	1.3	65	-0.841	-5.65	18	12.7	9.13							CN(C)c1ncnc(-c2ccc3nc(Nc4cc(CN5CCN(C(=O)CC(F)(F)F)CC5)ccn4)[nH]c3c2)c1Cl	
-3.46	-0.384	46.5	-8.98	-2.46	24.9	6.38	6.26							COc1ccc(COc2ccc(Cc3cnc(N)nc3N)cc2OC)cc1	
3.94	3.54	45.8	-0.63	-9.42	58.2	12.1	48.4							Cc1cc(OC2CCS(=O)(=O)CC2)cc(C)c1-c1cccc(COc2ccc(CCC(=O)O)c(F)c2)c1	
								-4.64	6.15	0.685	59.3	24.9	18.5	O=C(Nc1ccc(-n2nc(-c3cccnc3)cc2C(F)(F)F)cn1)c1ccc(-c2ccccc2)c(F)c1	inhibition [3, 11]: 56.1%; inhibition ([5]; Compound Concentration 1.0 uM): 4.61%
								9.35	6.67	10.6	20.6	24.1	4.23	C[C@@H]1CCN(C(=O)CC#N)C[C@@H]1N(C)c1ncnc2[nH]ccc12	inhibition [3, 11]: 61.6%; inhibition ([5]; Compound Concentration 1.0 uM): -1.11%
								7.33	-2.04	2	58.9	17	2.93	O=C(O)[C@H]1[C@H](Cn2nnc3ccccc3c2=O)CC[C@@H]1C(=O)c1ccc(OCCC2CCOCC2)cc1	inhibition [3, 11]: 51.4%; inhibition ([5]; Compound Concentration 1.0 uM): -9.93%
-7.15	1.95	37.2	3.97	4.61	54.4	5.39	-5.03							CCC(=O)N[C@@H]1CC[C@H](C(=O)N(C)c2ccc(-c3nc4ccccc4o3)cc2)C1	
22.8	1.63	47.2	-6.55	5.63	61	9.09	2.2							CC(=O)Nc1c(C(C)=O)c(=O)n(C)c2nc(-c3ccc(Cl)cc3Cl)c(-c3ccc(Cl)cc3)cc12	
-1.88	1.59	33.1	2.18		5.39	13.4	1.25							COc1cc(N(C)c2ccnc3ccc(C(F)(F)F)cc23)cc(OC)c1OC	inhibition ([9]; Compound Concentration 10.0 uM): 4.23%
-7.97	0.574	52	11.9		61.9	19								C[C@H](CCOc1cccc(CC(=O)O)c1)N(Cc1cccc(C(F)(F)F)c1Cl)CC(c1ccccc1)c1ccccc1	inhibition ([9]; Compound Concentration 10.0 uM): -4.38%; inhibition [8, 12]: 103%
								-6.44	3.14	-1.95	55.3	2.79	-2.43	CC(C)(O)c1ccc(N2Cc3c(ccnc3-c3ccc(F)cc3OCC(F)(F)F)C2=O)cc1	inhibition [3, 11]: 51.2%; inhibition ([9]; Compound Concentration 1.0 uM): -3.02%
36.6	6.61	38.4	-2.7		-7.39	19.6	-5.59							CN(C)C(=O)N1CC[C@H](NC2=Nc3cc(F)ccc3N(CC(F)F)c3ccc(Cl)cc32)C1	inhibition ([9]; Compound Concentration 10.0 uM): -0.787%
								27.4	2.39	-9.68	7.42	22.7	3.29	CN(C)C(=O)Cn1cc(-c2ccc(-c3nnc4ccccn34)cc2)cn1	inhibition ([3]; Compound Concentration 1.0 uM, Hit Yes): 100%; inhibition ([9]; Compound Concentration 1.0 uM): -1.84%
27.8	3.04	39	-8.98		-9.13	24.3	32.2							O=C(NCc1ccccc1)c1ccc(S(=O)(=O)NCc2ccccc2)cc1	inhibition ([9]; Compound Concentration 10.0 uM): -2.64%
								0.168	5.87	-7.2	58.8	13.6	-4.69	CNC(=O)Nc1ccc2c(c1)CC[C@@]21OC(=O)N(CC(=O)N(Cc2ccc(F)cc2)[C@@H](C)C(F)(F)F)C1=O	inhibition [3, 11]: 100%; inhibition ([9]; Compound Concentration 1.0 uM): -8.77%
93.4	1.96		8			-6.4	3.9							CN(C)CCN(Cc1ccc(-c2ccc(CNCCc3ccccc3)cc2)cc1)C(=O)CCC1CCCC1	inhibition [3, 12]: 80.3%; inhibition ([9]; Compound Concentration 10.0 uM): 4.6%; inhibition [6, 12]: 78.7%
								3.16	4.04	7.06	18.1	21.6	6.47	c1ccc(-c2oc3ncnc(NC[C@@H]4CCCO4)c3c2-c2ccccc2)cc1	inhibition [3, 11]: 35.9%; inhibition ([9]; Compound Concentration 1.0 uM): -7.66%

— ChEMBL document CHEMBL5665443, “Enzyme Inhibitor Single Concentration assay results for EUbOPEN Chemogenomics Library” (2024)
